Data from patent US20230117205A1, “B7-H4 ANTIBODY-DRUG CONJUGATES FOR THE TREATMENT OF CANCER” (SEAGEN INC., priority 2021, published 2023).

Columns and labels:
[1] = system: OVCAR3 xenograft model; assay: OVCAR3 xenograft, Study OVCAR3-e314; type: in vivo, SCID mice; conditions: 3 mg/kg, three weekly doses, i.v.
Method: Tumor volume was measured twice weekly until study day 60.
Female SCID mice were implanted with OVCAR3 tumor fragments (˜1 mm^3) subcutaneously at Charles River Discovery Services (NC). Once tumor volumes reached 150-200 mm^3, mice were dosed with 3 mg/kg of ADC every seven days for three total doses (q7dx3). Tumor volumes were measured twice weekly, and animals were euthanized when tumor volume reached 1000 mm^3. Stock concentrations of ADC were diluted to a desired concentration (with PBS) and injected i.v. into each treatment group.
Tumor growth inhibition (TGI) for each treatment group compared to the untreated group was analyzed on study day 26 as follows: % TGI=[1−(([…])/MTVuntreated)]*100, where MTV is the mean tumor volume. Statistical significance was determined using the Mann-Whitney U test (two-tailed).

[2] = system: MX-1 xenograft model; assay: MX-1 xenograft, Study MX1-2; type: in vivo, SCID mice; conditions: 3 mg/kg, three weekly doses, i.p.
Method: Tumor volume was measured twice weekly until study day 84.
(§1) Female SCID mice were implanted with 5×10^5 MX1 tumor cells in 25% Matrigel H C (Corning #354248) subcutaneously. Once tumor volumes reached 100 mm^3, mice were randomized into treatment groups of 5 mice each and dosed with 3 mg/kg of ADC every seven days for three total doses (q7dx3). Tumor volumes were measured twice per week, and animals were euthanized when tumor volume reached 700-1000 mm^3. Stock concentrations of ADC were diluted to a desired concentration (with 0.01% Tween20 in PBS) and injected i.p. into each treatment group.

[3] = system: HCC1569 xenograft model; assay: HCC1569 xenograft, Study HCC1569-2; type: in vivo, NSG mice; conditions: 3 mg/kg, three weekly doses, i.p.
Method: Tumor volume was measured once or twice weekly until study day 71.
as §1, with “NSG” for “SCID”, “1×10^6HCC1569” for “5×10^5 MX1”, “(q7dx3). Each mouse was treated with 10 mg/kg hIVIG (Grifolds) twenty-four hours prior to receiving each ADC dose.” for “(q7dx3).”, “1-3 times” for “twice”

[4] = target: T1, hFcγRIIb (Homo sapiens, UniProt P31994); assay: BLI binding to human Fc receptors; conditions: low data quality
T1 construct: made in house
T1 sequence (P31994 43-310): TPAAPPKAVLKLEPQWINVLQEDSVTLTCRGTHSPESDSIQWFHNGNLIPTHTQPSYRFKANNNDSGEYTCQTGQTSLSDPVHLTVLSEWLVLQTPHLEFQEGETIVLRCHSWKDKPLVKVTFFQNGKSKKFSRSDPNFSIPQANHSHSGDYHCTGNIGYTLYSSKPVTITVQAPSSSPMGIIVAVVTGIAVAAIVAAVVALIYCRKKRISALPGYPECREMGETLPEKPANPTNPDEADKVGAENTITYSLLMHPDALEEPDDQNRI

[5] = system: SKBR3; assay: ADCP with primary monocytes/macrophages; type: cell-based, human; conditions: 2 independent donors
Method: The B7-H4-expressing cell line SKBR3 and primary monocytes/macrophages were used to evaluate SGN-B7H4V-mediated ADCP. […] Phagocytosis of opsonized cells was assessed by flow cytometry.
SKBR3 tumor cells were fluorescently labeled with PKH26 (PKH26 Red Fluorescent Cell Membrane Labeling Kit, Sigma-Aldrich #PKH26GL-1KT), according to manufacturer instructions: SKBR3 cells were harvested with Versene (Gibco #15040-066) for 10 minutes and washed once with PBS. Cell were resuspended in 1 mL Diluent C (included in the PKH26 Red Fluorescent Cell Membrane Labeling Kit, Sigma-Aldrich #PKH26GL-1KT). In a separate tube, 1 mL Diluent C was mixed with 4 μL PKH26 dye by pipetting up and down. The dye solution was transferred to resuspended cells, quickly mixed by pipetting up and down several times, and incubated at room temperature for 5 minutes. Labeling reaction was stopped by adding 2 mL FBS (0.05-0.2 EU/ml Endotoxin, R&D Systems #S11550H). Cells were then washed once with RPMI 1640 (Gibco #11875-093) containing 10% FBS. Cells were resuspended in PBS at concentration of 0.8×10^6 cells/mL and transferred (300 μL/well) to a 96-well U-bottom plate (Falcon #353227). […] Phagocytosis is reported as the PKH26 geometric mean fluorescence intensity (gMFI) of gated CD14+/CD45+ cells analyzed using Flowjo. […]

## SGN-B7H4V: ADC of fully human IgG1 anti-B7-H4 mAb conjugated to monomethyl auristatin E (MMAE) via a protease-cleavable valine-citrulline linker (vedotin)
[1]
  mean tumor volume compared to the untreated group: reduction in mean tumor volume
[1]; study day 26, compared to untreated
  Tumor growth inhibition (TGI): 48%
[2]
  anti-tumor activity (tumor volume): regression of tumor volumes in all mice
  mice with sustained regression: 4 of the 5
[3]
  anti-tumor activity (tumor volume): robust tumor growth delay
[4]
  affinity: weakest affinity
[5]
  ADCP activity: ADCP activity above that seen with the positive control
